From ChEMBL document CHEMBL1201862, “PubChem BioAssay data set” (2004)
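Interpolation was linear, between the two tested concentrations surrounding the appropriate level; five concentrations were tested over 48 hours in 96-well plates. GI50: concentration for 50% inhibition of growth.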 The source made the active and inactive calls. No stated cut-off is given here; in the data, active = GI50 up to about 1.1 µM and inactive = higher.

Key:
Test in all cases: growth of human tumour cells (NCI), 48 h
EKVX = test system: EKVX
NCI-H226 = test system: NCI-H226
UACC-257 = test system: UACC-257
KM12 = test system: KM12
COLO 205 = test system: COLO 205
LOX IMVI = test system: LOX IMVI
SF-268 = test system: SF-268
DMS-114 = test system: DMS-114
K562 = test system: K562
RXF 631 = test system: RXF 631
UACC-62 = test system: UACC-62
786-0 = test system: 786-0
M19-MEL = test system: M19-MEL
NCI-H460 = test system: NCI-H460
A549 = test system: A549
CAKI-1 = test system: CAKI-1
SNB-19 = test system: SNB-19
DMS-273 = test system: DMS-273
OVCAR-5 = test system: OVCAR-5
DLD-1 = test system: DLD-1
HCT-116 = test system: HCT-116
TK-10 = test system: TK-10
HCC 2998 = test system: HCC 2998
UO-31 = test system: UO-31
RXF 393 = test system: RXF 393
HL-60 = test system: HL-60
KM-20L2 = test system: KM-20L2
NCI-H23 = test system: NCI-H23
CCRF-CEM = test system: CCRF-CEM
SK-MEL-2 = test system: SK-MEL-2
OVCAR-3 = test system: OVCAR-3
SK-OV-3 = test system: SK-OV-3
Malme-3M = test system: Malme-3M
NCI-H522 = test system: NCI-H522
A498 = test system: A498
HCT-15 = test system: HCT-15
SF-295 = test system: SF-295
HT-29 = test system: HT-29
ACHN = test system: ACHN
SF-539 = test system: SF-539
IGROV-1 = test system: IGROV-1
HOP-92 = test system: HOP-92
HOP-18 = test system: HOP-18
SK-MEL-5 = test system: SK-MEL-5
SW-620 = test system: SW-620
M14 = test system: M14
OVCAR-4 = test system: OVCAR-4
SK-MEL-28 = test system: SK-MEL-28
SR = test system: SR
LXFL 529 = test system: LXFL 529
SNB-75 = test system: SNB-75
MOLT-4 = test system: MOLT-4
SNB-78 = test system: SNB-78
OVCAR-8 = test system: OVCAR-8
HOP-62 = test system: HOP-62
RPMI-8226 = test system: RPMI-8226
SN12C = test system: SN12C
U-251 = test system: U-251

`CCOC(=O)c1c2ccc(/C=C/c3ccccc3)ccc-2c(C(=O)OCC)c1N` was tested, and the GI50 (EKVX) was > 100 µM (inactive), the GI50 (NCI-H226) was > 100 µM (inactive) and the GI50 (UACC-257) was > 100 µM (inactive). For the same compound, the GI50 (KM12) was 54.6 µM (inactive), the GI50 (COLO 205) was > 100 µM (inactive) and the GI50 (LOX IMVI) was > 100 µM (inactive). For the same compound, the GI50 (SF-268) was > 100 µM (inactive), the GI50 (DMS-114) was > 100 µM (inactive) and the GI50 (K562) was > 100 µM (inactive). For the same compound, the GI50 (RXF 631) was > 100 µM (inactive), the GI50 (UACC-62) was 73.6 µM (inactive) and the GI50 (786-0) was > 100 µM (inactive). For the same compound, the GI50 (M19-MEL) was > 100 µM (inactive), the GI50 (NCI-H460) was > 100 µM (inactive) and the GI50 (A549) was > 100 µM (inactive). For the same compound, the GI50 (CAKI-1) was > 100 µM (inactive), the GI50 (SNB-19) was > 100 µM (inactive) and the GI50 (DMS-273) was > 100 µM (inactive). For the same compound, the GI50 (OVCAR-5) was > 100 µM (inactive), the GI50 (DLD-1) was > 100 µM (inactive) and the GI50 (HCT-116) was > 100 µM (inactive). For the same compound, the GI50 (TK-10) was > 100 µM (inactive), the GI50 (HCC 2998) was 95.5 µM (inactive) and the GI50 (UO-31) was > 100 µM (inactive). For the same compound, the GI50 (RXF 393) was > 100 µM (inactive), the GI50 (HL-60) was > 100 µM (inactive) and the GI50 (KM-20L2) was > 100 µM (inactive). The GI50 (NCI-H23) was 32 µM (inactive), the GI50 (CCRF-CEM) was > 100 µM (inactive) and the GI50 (SK-MEL-2) was > 100 µM (inactive). For the same compound, the GI50 (OVCAR-3) was > 100 µM (inactive), the GI50 (SK-OV-3) was 86.1 µM (inactive) and the GI50 (Malme-3M) was > 100 µM (inactive). For the same compound, the GI50 (NCI-H522) was > 100 µM (inactive), the GI50 (A498) was 36.1 µM (inactive) and the GI50 (HCT-15) was over 100 µM. For the same compound, the GI50 (SF-295) was > 100 µM (inactive), the GI50 (HT-29) was 95.3 µM (inactive) and the GI50 (ACHN) was > 100 µM (inactive). For the same compound, the GI50 (SF-539) was > 100 µM (inactive), the GI50 (IGROV-1) was > 100 µM (inactive) and the GI50 (HOP-92) was > 100 µM (inactive). For the same compound, the GI50 (HOP-18) was > 100 µM (inactive), the GI50 (SK-MEL-5) was > 100 µM (inactive) and the GI50 (SW-620) was > 100 µM (inactive). For the same compound, the GI50 (M14) was > 100 µM (inactive), the GI50 (OVCAR-4) was 34.1 µM (inactive) and the GI50 (SK-MEL-28) was > 100 µM (inactive). For the same compound, the GI50 (SR) was 4.2 µM (inactive), the GI50 (LXFL 529) was 78.7 µM (inactive) and the GI50 (SNB-75) was 36.7 µM (inactive). The GI50 (MOLT-4) was > 100 µM (inactive).

With `COc1ccc(C(=O)C(c2ccc(OC)cc2)C2(O)C(=O)Nc3c(C)cc(Cl)cc32)cc1` (centres undefined) the GI50 (EKVX) was > 100 µM (inactive), the GI50 (NCI-H226) was 76.6 µM (inactive) and the GI50 (UACC-257) was 55 µM (inactive). The GI50 (KM12) was > 100 µM (inactive), the GI50 (COLO 205) was > 100 µM (inactive) and the GI50 (SF-268) was 82.8 µM (inactive). For the same compound, the GI50 (K562) was 21.6 µM (inactive), the GI50 (RXF 631) was 59 µM (inactive) and the GI50 (UACC-62) was 23.2 µM (inactive). For the same compound, the GI50 (786-0) was > 100 µM (inactive), the GI50 (M19-MEL) was 20.8 µM (inactive) and the GI50 (NCI-H460) was > 100 µM (inactive). For the same compound, the GI50 (A549) was > 100 µM (inactive), the GI50 (SNB-19) was > 100 µM (inactive) and the GI50 (DMS-273) was 58.9 µM (inactive). The GI50 (OVCAR-5) was > 100 µM (inactive), the GI50 (DLD-1) was 76.4 µM (inactive) and the GI50 (HCT-116) was 70.3 µM (inactive). For the same compound, the GI50 (TK-10) was > 100 µM (inactive), the GI50 (HCC 2998) was > 100 µM (inactive) and the GI50 (UO-31) was > 100 µM (inactive). For the same compound, the GI50 (RXF 393) was > 100 µM (inactive), the GI50 (HL-60) was 17.1 µM (inactive) and the GI50 (KM-20L2) was > 100 µM (inactive). The GI50 (NCI-H23) was 85.5 µM (inactive), the GI50 (SNB-78) was > 100 µM (inactive) and the GI50 (CCRF-CEM) was 10.3 µM (inactive). The GI50 (OVCAR-8) was 92.7 µM (inactive), the GI50 (SK-MEL-2) was > 100 µM (inactive) and the GI50 (OVCAR-3) was 52 µM (inactive). For the same compound, the GI50 (SK-OV-3) was > 100 µM (inactive), the GI50 (Malme-3M) was > 100 µM (inactive) and the GI50 (NCI-H522) was 28 µM (inactive). The GI50 (A498) was > 100 µM (inactive), the GI50 (HCT-15) was over 100 µM and the GI50 (SF-295) was 54.8 µM (inactive). The GI50 (HT-29) was 63.5 µM (inactive), the GI50 (ACHN) was > 100 µM (inactive) and the GI50 (SF-539) was 69.8 µM (inactive). The GI50 (IGROV-1) was 72.8 µM (inactive), the GI50 (HOP-62) was > 100 µM (inactive) and the GI50 (RPMI-8226) was 14.4 µM (inactive). The GI50 (HOP-92) was 21.9 µM (inactive), the GI50 (SN12C) was 58.1 µM (inactive) and the GI50 (SW-620) was > 100 µM (inactive). The GI50 (M14) was 92 µM (inactive), the GI50 (OVCAR-4) was 63.2 µM (inactive) and the GI50 (SK-MEL-28) was > 100 µM (inactive). The GI50 (SR) was 12.5 µM (inactive), the GI50 (LXFL 529) was 37.7 µM (inactive) and the GI50 (SNB-75) was 33.2 µM (inactive). For the same compound, the GI50 (U-251) was 45.2 µM (inactive) and the GI50 (MOLT-4) was 14.1 µM (inactive).

In the case of `COc1nc2[nH]ccc2c(=O)[nH]1`, the GI50 (EKVX) is reported as > 100 µM (inactive), the GI50 (NCI-H226) is reported as 0.41 µM (active) and the GI50 (UACC-257) is reported as > 100 µM (inactive). For the same compound, the GI50 (KM12) was > 100 µM (inactive), the GI50 (COLO 205) was > 100 µM (inactive) and the GI50 (LOX IMVI) was > 100 µM (inactive). For the same compound, the GI50 (SF-268) was > 100 µM (inactive), the GI50 (DMS-114) was > 100 µM (inactive) and the GI50 (K562) was > 100 µM (inactive). The GI50 (RXF 631) was > 100 µM (inactive), the GI50 (NCI-H460) was > 100 µM (inactive) and the GI50 (A549) was > 100 µM (inactive). For the same compound, the GI50 (CAKI-1) was > 100 µM (inactive), the GI50 (SNB-19) was > 100 µM (inactive) and the GI50 (OVCAR-5) was > 100 µM (inactive). For the same compound, the GI50 (DLD-1) was > 100 µM (inactive), the GI50 (HCT-116) was > 100 µM (inactive) and the GI50 (TK-10) was > 100 µM (inactive). For the same compound, the GI50 (HCC 2998) was > 100 µM (inactive), the GI50 (UO-31) was > 100 µM (inactive) and the GI50 (RXF 393) was > 100 µM (inactive). The GI50 (HL-60) was > 100 µM (inactive), the GI50 (KM-20L2) was > 100 µM (inactive) and the GI50 (NCI-H23) was > 100 µM (inactive). The GI50 (SNB-78) was > 100 µM (inactive), the GI50 (CCRF-CEM) was > 100 µM (inactive) and the GI50 (OVCAR-8) was > 100 µM (inactive). The GI50 (SK-MEL-2) was > 100 µM (inactive), the GI50 (Malme-3M) was > 100 µM (inactive) and the GI50 (A498) was > 100 µM (inactive). For the same compound, the GI50 (SF-295) was > 100 µM (inactive), the GI50 (HT-29) was > 100 µM (inactive) and the GI50 (ACHN) was > 100 µM (inactive). For the same compound, the GI50 (SF-539) was > 100 µM (inactive), the GI50 (IGROV-1) was > 100 µM (inactive) and the GI50 (RPMI-8226) was > 100 µM (inactive). The GI50 (HOP-92) was > 100 µM (inactive), the GI50 (HOP-18) was 42.7 µM (inactive) and the GI50 (SN12C) was > 100 µM (inactive). The GI50 (SK-MEL-5) was > 100 µM (inactive), the GI50 (SW-620) was > 100 µM (inactive) and the GI50 (M14) was > 100 µM (inactive). For the same compound, the GI50 (OVCAR-4) was > 100 µM (inactive), the GI50 (SK-MEL-28) was > 100 µM (inactive) and the GI50 (SR) was > 100 µM (inactive). For the same compound, the GI50 (LXFL 529) was > 100 µM (inactive), the GI50 (SNB-75) was > 100 µM (inactive) and the GI50 (U-251) was > 100 µM (inactive). The GI50 (MOLT-4) was > 100 µM (inactive).
